Drawing on the NIST ThermoML archive (doi:10.1021/je900386p), this text covers Normal melting temperature for one compound.

Numbers after ± are expanded uncertainties.

The conditions of the series: Crystal; visual observation.

`F[P-](F)(F)(F)(F)F.F[P-](F)(F)(F)(F)F.c1cc[n+](CCC[n+]2ccccc2)cc1` [1,1'-(1,3-propanediyl)bis-pyridinium hexafluorophosphate]: the Normal melting temperature was found to be 284.6 ± 1.4 °C.
